According to ChEMBL document CHEMBL1140398, “New dual inhibitors of EGFR and HER2 protein tyrosine kinases” (Bioorg Med Chem Lett, 2005):
pIC50: −log10 of the molar value.

How the values were obtained:
[1] = molecular target: Receptor tyrosine-protein kinase erbB-2 (Homo sapiens, UniProt P04626); test: In vitro inhibitory concentration against HER2 cytoplasmic sequence expressed in Sf9 cells
[2] = molecular target: Epidermal growth factor receptor (Homo sapiens, UniProt P00533); test: In vitro inhibitory concentration against EGFR cytoplasmic sequence expressed in Sf9 cells
[3] = molecular target: Insulin-like growth factor 1 receptor (Homo sapiens, UniProt P08069); test: Inhibitory concentration against IGF-1R cytoplasmic sequence; Reported as mean (variability <15%)
[4] = molecular target: Focal adhesion kinase 1 (Homo sapiens, UniProt Q05397); test: Inhibitory concentration against FAK cytoplasmic sequence; Reported as mean (variability <15%)
[5] = molecular target: Hepatocyte growth factor receptor (Homo sapiens, UniProt P08581); test: Inhibitory concentration against Met cytoplasmic sequence; Reported as mean (variability <15%)
[6] = molecular target: MAP kinase-activated protein kinase 2 (Homo sapiens, UniProt P49137); test: Inhibitory concentration against MAPKAP kinase 2 cytoplasmic sequence; Reported as mean (variability <15%)
[7] = molecular target: Mitogen-activated protein kinase 14 (Homo sapiens, UniProt Q16539); test: Inhibitory concentration against p38 cytoplasmic sequence; Reported as mean (variability <15%)

Receptor tyrosine-protein kinase erbB-2, sequence (P04626 whole entry): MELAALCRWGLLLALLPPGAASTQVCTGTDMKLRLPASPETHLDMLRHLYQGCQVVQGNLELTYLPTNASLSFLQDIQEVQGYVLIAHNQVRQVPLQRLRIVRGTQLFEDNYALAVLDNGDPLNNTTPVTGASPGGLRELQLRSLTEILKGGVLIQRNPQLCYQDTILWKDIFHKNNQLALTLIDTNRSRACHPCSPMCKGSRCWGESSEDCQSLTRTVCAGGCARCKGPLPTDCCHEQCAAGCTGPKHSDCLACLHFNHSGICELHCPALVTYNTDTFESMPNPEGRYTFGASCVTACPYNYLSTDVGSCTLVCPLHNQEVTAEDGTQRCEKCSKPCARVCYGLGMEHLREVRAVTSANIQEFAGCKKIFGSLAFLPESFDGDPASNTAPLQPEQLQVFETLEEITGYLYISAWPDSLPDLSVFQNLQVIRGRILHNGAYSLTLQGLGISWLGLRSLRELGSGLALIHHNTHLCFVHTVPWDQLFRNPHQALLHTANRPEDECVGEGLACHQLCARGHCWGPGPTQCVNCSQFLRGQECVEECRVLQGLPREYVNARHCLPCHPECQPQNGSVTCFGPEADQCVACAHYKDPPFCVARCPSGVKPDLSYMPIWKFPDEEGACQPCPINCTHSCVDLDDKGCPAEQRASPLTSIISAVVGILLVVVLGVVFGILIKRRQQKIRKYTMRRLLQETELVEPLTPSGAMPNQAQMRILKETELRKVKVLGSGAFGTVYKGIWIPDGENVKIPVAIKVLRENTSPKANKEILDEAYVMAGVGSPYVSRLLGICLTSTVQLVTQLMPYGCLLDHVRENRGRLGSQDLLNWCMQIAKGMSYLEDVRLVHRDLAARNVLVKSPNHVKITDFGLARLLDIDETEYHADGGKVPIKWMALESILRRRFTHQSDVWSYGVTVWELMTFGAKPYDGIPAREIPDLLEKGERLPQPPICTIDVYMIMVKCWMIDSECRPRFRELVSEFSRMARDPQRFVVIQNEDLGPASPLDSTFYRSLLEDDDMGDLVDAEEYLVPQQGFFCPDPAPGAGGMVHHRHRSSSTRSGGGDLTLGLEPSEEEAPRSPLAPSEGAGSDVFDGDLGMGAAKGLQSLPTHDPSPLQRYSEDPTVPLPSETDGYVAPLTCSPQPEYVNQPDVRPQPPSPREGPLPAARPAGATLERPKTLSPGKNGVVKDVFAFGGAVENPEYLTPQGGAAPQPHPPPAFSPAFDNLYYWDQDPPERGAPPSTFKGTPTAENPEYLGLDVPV
Epidermal growth factor receptor, sequence (P00533 whole entry): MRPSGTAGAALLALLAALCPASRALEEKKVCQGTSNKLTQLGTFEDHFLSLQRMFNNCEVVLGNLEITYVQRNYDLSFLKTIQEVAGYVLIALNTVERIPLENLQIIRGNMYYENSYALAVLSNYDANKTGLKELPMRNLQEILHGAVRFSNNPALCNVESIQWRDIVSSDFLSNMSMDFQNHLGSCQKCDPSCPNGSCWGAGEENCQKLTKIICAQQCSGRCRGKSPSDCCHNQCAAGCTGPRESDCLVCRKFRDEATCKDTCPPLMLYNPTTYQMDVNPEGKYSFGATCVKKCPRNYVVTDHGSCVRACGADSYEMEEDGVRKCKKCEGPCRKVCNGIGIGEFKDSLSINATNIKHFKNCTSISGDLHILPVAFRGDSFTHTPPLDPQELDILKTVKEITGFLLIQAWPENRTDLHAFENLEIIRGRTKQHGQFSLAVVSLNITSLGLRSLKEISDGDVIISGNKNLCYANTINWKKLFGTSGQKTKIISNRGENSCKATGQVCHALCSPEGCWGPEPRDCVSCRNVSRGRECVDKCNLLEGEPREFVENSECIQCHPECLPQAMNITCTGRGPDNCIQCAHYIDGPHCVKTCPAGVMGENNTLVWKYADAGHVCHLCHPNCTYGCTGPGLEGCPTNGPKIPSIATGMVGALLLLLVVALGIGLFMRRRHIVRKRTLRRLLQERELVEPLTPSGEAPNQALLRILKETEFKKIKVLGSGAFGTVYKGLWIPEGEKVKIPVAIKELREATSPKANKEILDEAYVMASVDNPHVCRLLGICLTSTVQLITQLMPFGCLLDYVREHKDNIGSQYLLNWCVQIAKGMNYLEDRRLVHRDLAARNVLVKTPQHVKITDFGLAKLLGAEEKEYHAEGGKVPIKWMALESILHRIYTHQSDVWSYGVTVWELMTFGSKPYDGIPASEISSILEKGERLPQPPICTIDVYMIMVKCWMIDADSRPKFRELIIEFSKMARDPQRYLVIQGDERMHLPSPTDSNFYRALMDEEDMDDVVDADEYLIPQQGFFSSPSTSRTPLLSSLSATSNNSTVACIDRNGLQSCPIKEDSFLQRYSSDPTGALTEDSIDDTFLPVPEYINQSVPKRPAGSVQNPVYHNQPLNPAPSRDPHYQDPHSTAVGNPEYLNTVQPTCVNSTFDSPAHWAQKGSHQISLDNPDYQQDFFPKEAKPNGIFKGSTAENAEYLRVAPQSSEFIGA
Hepatocyte growth factor receptor, sequence (P08581 whole entry): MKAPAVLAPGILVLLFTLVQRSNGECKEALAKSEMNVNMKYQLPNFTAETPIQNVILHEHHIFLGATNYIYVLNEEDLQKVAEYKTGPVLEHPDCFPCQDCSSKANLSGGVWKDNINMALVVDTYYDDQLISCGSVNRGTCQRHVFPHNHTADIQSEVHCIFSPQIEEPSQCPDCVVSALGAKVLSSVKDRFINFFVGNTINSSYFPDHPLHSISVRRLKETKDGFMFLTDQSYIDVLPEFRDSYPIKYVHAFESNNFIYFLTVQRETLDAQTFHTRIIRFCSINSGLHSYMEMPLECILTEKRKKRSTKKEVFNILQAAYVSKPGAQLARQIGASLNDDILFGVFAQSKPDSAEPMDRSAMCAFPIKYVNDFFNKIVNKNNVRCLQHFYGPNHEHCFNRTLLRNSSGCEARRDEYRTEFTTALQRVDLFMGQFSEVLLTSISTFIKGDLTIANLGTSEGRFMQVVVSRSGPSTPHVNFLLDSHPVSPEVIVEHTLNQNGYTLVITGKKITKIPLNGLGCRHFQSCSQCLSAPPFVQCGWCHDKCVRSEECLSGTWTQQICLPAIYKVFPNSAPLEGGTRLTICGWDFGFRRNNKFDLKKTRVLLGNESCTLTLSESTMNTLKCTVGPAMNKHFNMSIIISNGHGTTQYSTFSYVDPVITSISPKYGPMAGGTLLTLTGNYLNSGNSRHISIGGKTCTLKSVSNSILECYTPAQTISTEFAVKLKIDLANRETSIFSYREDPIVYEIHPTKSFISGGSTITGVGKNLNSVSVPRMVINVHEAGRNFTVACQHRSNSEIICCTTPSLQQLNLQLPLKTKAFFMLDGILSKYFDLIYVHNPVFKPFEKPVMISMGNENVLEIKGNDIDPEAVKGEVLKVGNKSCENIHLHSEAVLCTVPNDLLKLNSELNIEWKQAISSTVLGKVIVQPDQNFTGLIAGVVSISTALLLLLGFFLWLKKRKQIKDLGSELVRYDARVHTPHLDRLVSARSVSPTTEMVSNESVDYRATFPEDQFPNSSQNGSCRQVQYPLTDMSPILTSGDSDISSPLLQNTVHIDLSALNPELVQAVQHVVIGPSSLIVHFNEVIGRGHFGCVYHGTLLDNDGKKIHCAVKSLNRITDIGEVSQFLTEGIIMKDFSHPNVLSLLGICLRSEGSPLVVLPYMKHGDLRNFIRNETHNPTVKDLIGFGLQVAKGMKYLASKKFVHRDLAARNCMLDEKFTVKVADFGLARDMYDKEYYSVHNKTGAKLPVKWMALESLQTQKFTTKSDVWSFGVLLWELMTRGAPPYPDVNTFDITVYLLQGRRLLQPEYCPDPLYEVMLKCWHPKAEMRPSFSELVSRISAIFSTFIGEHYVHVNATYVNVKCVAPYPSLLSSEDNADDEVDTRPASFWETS
Focal adhesion kinase 1, sequence (Q05397 whole entry): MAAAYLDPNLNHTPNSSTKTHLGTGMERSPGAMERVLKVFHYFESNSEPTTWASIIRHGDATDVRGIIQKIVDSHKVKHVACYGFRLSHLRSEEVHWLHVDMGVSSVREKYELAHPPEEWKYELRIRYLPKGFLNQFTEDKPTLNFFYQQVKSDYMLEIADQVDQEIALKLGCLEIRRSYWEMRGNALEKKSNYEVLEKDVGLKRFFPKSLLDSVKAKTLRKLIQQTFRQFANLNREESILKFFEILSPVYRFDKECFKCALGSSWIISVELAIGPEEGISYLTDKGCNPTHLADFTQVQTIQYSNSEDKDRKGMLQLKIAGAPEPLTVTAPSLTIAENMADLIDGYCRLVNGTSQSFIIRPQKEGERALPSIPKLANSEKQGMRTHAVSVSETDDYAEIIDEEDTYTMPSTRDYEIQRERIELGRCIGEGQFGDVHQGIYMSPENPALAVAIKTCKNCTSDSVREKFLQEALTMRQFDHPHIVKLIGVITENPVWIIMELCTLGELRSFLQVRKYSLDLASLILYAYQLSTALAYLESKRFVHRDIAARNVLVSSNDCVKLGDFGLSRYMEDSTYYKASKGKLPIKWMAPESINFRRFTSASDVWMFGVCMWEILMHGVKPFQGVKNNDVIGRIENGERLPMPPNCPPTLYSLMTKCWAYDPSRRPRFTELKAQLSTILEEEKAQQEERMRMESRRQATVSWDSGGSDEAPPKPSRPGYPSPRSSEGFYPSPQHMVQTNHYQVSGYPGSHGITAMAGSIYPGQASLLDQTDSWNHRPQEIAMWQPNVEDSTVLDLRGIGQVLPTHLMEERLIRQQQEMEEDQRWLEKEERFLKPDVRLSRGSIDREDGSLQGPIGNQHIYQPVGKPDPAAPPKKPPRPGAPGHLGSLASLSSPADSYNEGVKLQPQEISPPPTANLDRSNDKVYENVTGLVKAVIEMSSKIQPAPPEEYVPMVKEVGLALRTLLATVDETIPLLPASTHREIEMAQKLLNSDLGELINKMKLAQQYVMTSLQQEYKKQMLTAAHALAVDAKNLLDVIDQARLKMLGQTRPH

Row | SMILES | pIC50 [1] | pIC50 [2] | further results
1 | CCOC(=O)c1cn2ncnc(Nc3ccc4c(cnn4Cc4ccccc4)c3)c2c1CC | 6.74 | 6.92 | –
2 | CCOC(=O)c1cn2ncnc(Nc3ccc(Oc4ccccc4)cc3)c2c1CC | 6.09 | 6.21 | –
3 | CCOC(=O)c1cn2ncnc(Nc3cccc(Br)c3)c2c1CC | 5.52 | 7.22 | –
4 | CCc1c(CC(N)=O)cn2ncnc(Nc3ccc4c(cnn4Cc4ccccc4)c3)c12 | 5.62 | 5.96 | –
5 | CCc1c(CC(=O)O)cn2ncnc(Nc3ccc4c(cnn4Cc4ccccc4)c3)c12 | 6.17 | 5.80 | –
6 | CCc1c(C(N)=O)cn2ncnc(Nc3ccc4c(cnn4Cc4ccccc4)c3)c12 | 6.96 | 6.92 | –
7 | CCc1c(CO)cn2ncnc(Nc3ccc4c(cnn4Cc4ccccc4)c3)c12 | 6.14 | 6.31 | –
8 | CCOC(=O)c1cn2ncnc(NCc3ccccc3)c2c1CC | 5.14 | 6.70 | –
9 | CCOC(=O)c1cn2ncnc(Nc3ccc(F)c(Cl)c3)c2c1CC | 5.55 | 7.05 | –
10 | CCOC(=O)c1cn2ncnc(Nc3ccc4c(cnn4Cc4ccccc4)c3)c2c1C(C)C | 6.68 | 6.70 | –
11 | CCc1c(NC(=O)OCCn2ccnc2)cn2ncnc(Nc3ccc4c(cnn4Cc4ccccc4)c3)c12 | 7.40 | 7.40 | pIC50 [3]: < 4.60; pIC50 [4]: < 4.60; pIC50 [5]: < 5.00; pIC50 [6]: < 4.60; pIC50 [7]: < 4.60
12 | CCc1c(C(=O)NC)cn2ncnc(Nc3ccc4c(cnn4Cc4ccccc4)c3)c12 | 6.89 | 7.15 | –
13 | CCOC(=O)c1cn2ncnc(Nc3ccc4[nH]ncc4c3)c2c1CC | 5.48 | – | –
14 | CCc1c(C(=O)N(C)C)cn2ncnc(Nc3ccc4c(cnn4Cc4ccccc4)c3)c12 | 6.30 | 6.70 | –
15 | CCCc1c(C(=O)OCC)cn2ncnc(Nc3ccc4c(cnn4Cc4ccccc4)c3)c12 | 5.92 | 6.02 | –
16 | CCOC(=O)c1cn2ncnc(Nc3ccc4c(cnn4Cc4ccccc4)c3)c2c1Cc1ccccc1 | < 4.60 | < 4.60 | –
17 | CCOCc1cn2ncnc(Nc3ccc4c(cnn4Cc4ccccc4)c3)c2c1CC | 5.85 | 6.02 | –
18 | CCOC(=O)c1cc2c(Nc3ccc4c(cnn4Cc4ccccc4)c3)ncnn2c1 | 6.41 | 6.92 | –
19 | CCc1c(C(=O)O)cn2ncnc(Nc3ccc4c(cnn4Cc4ccccc4)c3)c12 | 7.40 | 7.70 | –
20 | CCNCc1cn2ncnc(Nc3ccc4c(cnn4Cc4ccccc4)c3)c2c1CC | 5.01 | 5.13 | –
21 | CCc1c(NC(=O)OCc2ccccc2)cn2ncnc(Nc3ccc4c(cnn4Cc4ccccc4)c3)c12 | 6.77 | 6.68 | –
22 | CCc1c(C(=O)NCCCn2ccnc2)cn2ncnc(Nc3ccc4c(cnn4Cc4ccccc4)c3)c12 | 7.52 | 7.40 | –
23 | CCc1c(C(=O)OCCCn2ccnc2)cn2ncnc(Nc3ccc4c(cnn4Cc4ccccc4)c3)c12 | 6.62 | 6.77 | –
